Where “and” joins values, the source holds several entries; their conditions need not be identical. Equal values may be shown once. Read-outs that look alike come from different tables or passages of the source.
Biological target: T1, catalytic domain of human Bub1 (amino acids 704-1085) (Homo sapiens, UniProt O43683)
T1 construct: catalytic domain of human Bub1 (amino acids 704-1085); His6 (N); made in house; host or cells: Hi5 insect cells
Test: Bub1 kinase assay (TR-FRET)
Type: biochemical
In short: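 TR-FRET read-out (Eu-anti-mouse IgG/anti-phosphoserine antibody to streptavidin-XL665 on biotinylated peptide) after EDTA stop and 1 h complex formation at 22° C. Kinase reaction ran 60 min at 22° C with 1:3.4 serial dilutions from 2 mM DMSO stocks. IC50 from 4-parameter logistic fit of normalized inhibition.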

[1] = 10 μM ATP, read-out: Biological Assay 1: Bub1 kinase assay median IC50
[2] = Biological Assay 1: Bub1 kinase assay median IC50, 10 μM ATP

T1 sequence (O43683 704-1085): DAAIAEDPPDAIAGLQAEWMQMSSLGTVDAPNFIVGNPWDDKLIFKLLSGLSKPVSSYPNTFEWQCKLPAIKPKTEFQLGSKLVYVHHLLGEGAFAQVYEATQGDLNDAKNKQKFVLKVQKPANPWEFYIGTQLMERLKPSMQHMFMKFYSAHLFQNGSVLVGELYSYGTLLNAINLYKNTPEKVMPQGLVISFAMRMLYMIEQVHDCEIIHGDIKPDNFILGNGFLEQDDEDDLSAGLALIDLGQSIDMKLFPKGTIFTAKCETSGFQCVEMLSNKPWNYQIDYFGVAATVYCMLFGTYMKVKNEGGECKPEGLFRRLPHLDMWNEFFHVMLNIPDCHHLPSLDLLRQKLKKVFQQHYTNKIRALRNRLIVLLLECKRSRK

Row | IC50 [1] | IC50 [2] | Compound
1 |  | 180 nM | COCCOc1cc(F)c(Cn2nc(-c3nc(C)c(F)c(Nc4ccnc(C)n4)n3)c3ccccc32)c(F)c1 [Example 2-12-75, 2-{1-[2,6-difluoro-4-(2-methoxyethoxy)benzyl]-1H-indazol-3-yl}-5-fluoro-6-methyl-N-(2-methylpyrimidin-4-yl)pyrimidin-4-amine]
2 | 6.2 nM |  | COCCOc1cc(F)c(Cn2nc(-c3nc(C)c(C)c(Nc4ccncc4OC)n3)c3ccccc32)c(F)c1 [Example 2-12-76, 2-{1-[2,6-difluoro-4-(2-methoxyethoxy)benzyl]-1H-indazol-3-yl}-N-(3-methoxypyridin-4-yl)-5,6-dimethylpyrimidin-4-amine]
3 | 6.7 nM |  | COCCOc1cc(F)c(Cn2nc(-c3nc(C)cc(Nc4ccncc4OC)n3)c3ccccc32)c(F)c1 [Example 2-12-77, 2-{1-[2,6-difluoro-4-(2-methoxyethoxy)benzyl]-1H-indazol-3-yl}-N-(3-methoxypyridin-4-yl)-6-methylpyrimidin-4-amine]
4 |  | 1100 nM | CCOc1cc(F)c(Cn2nc(-c3nc(Nc4ccnc(C)n4)cc(C4CCOCC4)n3)c3ccccc32)c(F)c1 [Example 2-12-89, 2-[1-(4-ethoxy-2,6-difluorobenzyl)-1H-indazol-3-yl]-N-(2-methylpyrimidin-4-yl)-6-(tetrahydro-2H-pyran-4-yl)pyrimidin-4-amine]
5 |  | 26 nM | COCCOc1cc(F)c(Cn2nc(-c3nc4c(c(Nc5ccncc5OC)n3)COCC4)c3ccccc32)c(F)c1 [Example 2-12-99, 2-{1-[2,6-difluoro-4-(2-methoxyethoxy)benzyl]-1H-indazol-3-yl}-N-(3-methoxypyridin-4-yl)-7,8-dihydro-5H-pyrano[4,3-d]pyrimidin-4-amin]
6 |  | 99 nM | COCCOc1cc(F)c(Cn2nc(-c3nc4c(c(Nc5ccnc(C)n5)n3)COCC4)c3ccccc32)c(F)c1 [Example 2-12-100, 2-{1-[2,6-difluoro-4-(2-methoxyethoxy)benzyl]-1H-indazol-3-yl}-N-(2-methylpyrimidin-4-yl)-7,8-dihydro-5H-pyrano[4,3-d]pyrimidin-4-amine]
7 |  | 8.2 nM | CCOc1cc(F)c(Cn2nc(-c3nc4c(c(Nc5ccncc5C5CC5)n3)CCC4)c3ccccc32)c(F)c1 [Example 2-14-8, N-(3-cyclopropylpyridin-4-yl)-2-[1-(4-ethoxy-2,6-difluorobenzyl)-1H-indazol-3-yl]-6,7-dihydro-5H-cyclopenta[d]pyrimidin-4-amine]
8 |  | 81 nM | COCCOc1cc(F)c(Cn2nc(-c3nc4c(c(Nc5ccnc(C)n5)n3)CCC(C)(C)C4)c3ccccc32)c(F)c1 [Example 2-15-9, 2-{1-[2,6-difluoro-4-(2-methoxyethoxy)benzyl]-1H-indazol-3-yl}-7,7-dimethyl-N-(2-methylpyrimidin-4-yl)-5,6,7,8-tetrahydroquinazolin-4-amine]
9 |  | 1400 nM | COCCOc1cc(F)c(Cn2nc(-c3nc4c(c(Nc5ccncc5Cl)n3)CCC(C)(C)C4)c3ccccc32)c(F)c1 [Example 2-15-10, N-(3-chloropyridin-4-yl)-2-{1-[2,6-difluoro-4-(2-methoxyethoxy)benzyl]-1H-indazol-3-yl}-7,7-dimethyl-5,6,7,8-tetrahydroquinazolin-4-amine]
10 |  | 1700 nM | COCCOc1cc(F)c(Cn2nc(-c3nc4c(c(Nc5ccncc5OC)n3)CCC(C)(C)C4)c3ccccc32)c(F)c1 [Example 2-15-11, 2-{1-[2,6-difluoro-4-(2-methoxyethoxy)benzyl]-1H-indazol-3-yl}-N-(3-methoxypyridin-4-yl)-7,7-dimethyl-5,6,7,8-tetrahydroquinazolin-4-amine]
11 |  | 21 nM | COCCOc1cc(F)c(Cn2nc(-c3nc4c(c(Nc5ccnc(NC(C)=O)c5)n3)CCC(C)(C)C4)c3ccccc32)c(F)c1 [Example 2-15-12, N-{4-[(2-{1-[2,6-difluoro-4-(2-methoxyethoxy)benzyl]-1H-indazol-3-yl}-7,7-dimethyl-5,6,7,8-tetrahydroquinazolin-4-yl)amino]pyridin-2-yl}acetamide]
12 |  | 6.3 nM | COCCOc1cc(F)c(Cn2nc(-c3ncc(C4CCNCC4)c(Nc4ccnc(NC(C)=O)c4)n3)c3ccccc32)c(F)c1 [Example 2-17-8, N-(4-{[2-{1-[2,6-difluoro-4-(2-methoxyethoxy)benzyl]-1H-indazol-3-yl}-5-(piperidin-4-yl)pyrimidin-4-yl]amino}pyridin-2-yl)acetamide]
13 |  | 7.5 nM | COCCOc1cc(F)c(Cn2nc(-c3ncc(C4CCNCC4)c(Nc4ccncc4Cl)n3)c3ccccc32)c(F)c1 [Example 2-17-9, N-(3-chloropyridin-4-yl)-2-{1-[2,6-difluoro-4-(2-methoxyethoxy)benzyl]-1H-indazol-3-yl}-5-(piperidin-4-yl)pyrimidin-4-amine]
14 |  | 85 nM | COCCOc1cc(F)c(Cn2nc(-c3ncc(C4CCNCC4)c(Nc4ccnc(C)n4)n3)c3ccccc32)c(F)c1 [Example 2-17-10, 2-{1-[2,6-difluoro-4-(2-methoxyethoxy)benzyl]-1H-indazol-3-yl}-N-(2-methylpyrimidin-4-yl)-5-(piperidin-4-yl)pyrimidin-4-amine]

The next lines start with the compound.

Row | Compound | IC50 [1] | IC50 [2]
15 | COCCOc1cc(F)c(Cn2nc(-c3nc(Nc4cc(C)ncc4C)cc(C(C)C)n3)c3ccccc32)c(F)c1 [Example 2-12-74, 2-{1-[2,6-difluoro-4-(2-methoxyethoxy)benzyl]-1H-indazol-3-yl}-N-(2,5-dimethylpyridin-4-yl)-6-isopropylpyrimidin-4-amine] | 180 nM | 
16 | COCCOc1cc(F)c(Cn2nc(-c3nc(C)cc(Nc4ccncc4OC(F)(F)F)n3)c3ccccc32)c(F)c1 [Example 2-12-78, 2-{1-[2,6-difluoro-4-(2-methoxyethoxy)benzyl]-1H-indazol-3-yl}-6-methyl-N-[3-(trifluoromethoxy)pyr-idin-4-yl]pyrimidin-4-amine] | 12 nM | 
17 | CCOc1cc(F)c(Cn2nc(-c3nc(C)cc(Nc4ccncc4O)n3)c3ccccc32)c(F)c1 [Example 2-12-80, 4-({2-[1-(4-ethoxy-2,6-difluorobenzyl)-1H-indazol-3-yl]-6-methylpyrimidin-4-yl}amino)pyridin-3-ol] | 51 nM | 
18 | CCOc1cc(F)c(Cn2nc(-c3nc(Nc4ccnc(C)n4)cc(-c4sc(C)nc4C)n3)c3ccccc32)c(F)c1 [Example 2-12-84, 6-(2,4-dimethyl-1,3-thiazol-5-yl)-2-[1-(4-ethoxy-2,6-difluorobenzyl)-1H-indazol-3-yl]-N-(2-methylpyrimidin-4-yl)pyrimidin-4-amine] |  | 2300 nM
19 | CCOc1cc(F)c(Cn2nc(-c3nc(Nc4ccncn4)cc(-c4sc(C)nc4C)n3)c3ccccc32)c(F)c1 [Example 2-12-85, 6-(2,4-dimethyl-1,3-thiazol-5-yl)-2-[1-(4-ethoxy-2,6-difluorobenzyl)-1H-indazol-3-yl]-N-(pyrimidin-4-yl)pyrimidin-4-amine] |  | 6000 nM
20 | CCOc1cc(F)c(Cn2nc(-c3nc(Nc4ccnc(NC(C)=O)c4)cc(C4CCOCC4)n3)c3ccccc32)c(F)c1 [Example 2-12-90, N-[4-({2-[1-(4-ethoxy-2,6-difluorobenzyl)-1H-indazol-3-yl]-6-(tetrahydro-2H-pyran-4-yl)pyrimidin-4-yl}amino)pyridin-2-yl]acetamide] |  | 11 nM
21 | CCOc1cc(F)c(Cn2nc(-c3nc(Nc4ccnc(C)n4)cc(-c4nccs4)n3)c3ccccc32)c(F)c1 [Example 2-12-96, 2-[1-(4-ethoxy-2,6-difluorobenzyl)-1H-indazol-3-yl]-N-(2-methylpyrimidin-4-yl)-6-(1,3-thiazol-2-yl)pyrimidin-4-amine] |  | > 20000 nM and 9200 nM
22 | CCOc1cc(F)c(Cn2nc(-c3nc4c(c(Nc5ccncc5Cl)n3)CCC4)c3ccccc32)c(F)c1 [Example 2-14-7, N-(3-chloropyridin-4-yl)-2-[1-(4-ethoxy-2,6-difluorobenzyl)-1H-indazol-3-yl]-6,7-dihydro-5H-cyclopenta[d]pyrimidin-4-amine] |  | 9.7 nM
23 | CCOc1cc(F)c(Cn2nc(-c3nc4c(c(Nc5ccncc5)n3)COC4)c3ccccc32)c(F)c1 [Example 2-14-10, 2-[1-(4-ethoxy-2,6-difluorobenzyl)-1H-indazol-3-yl]-N-(pyridin-4-yl)-5,7-dihydrofuro[3,4-d]pyrimidin-4-amine] |  | 7 nM
24 | COCCOc1cc(F)c(Cn2nc(-c3nc4c(c(Nc5cc(C)ncc5C)n3)CCC(C)(C)C4)c3ccccc32)c(F)c1 [Example 2-15-13, 2-{1-[2,6-difluoro-4-(2-methoxyethoxy)benzyl]-1H-indazol-3-yl}-N-(2,5-dimethylpyridin-4-yl)-7,7-dimethyl-5,6,7,8-tetrahydroquinazolin-4-amine] |  | 59 nM
25 | CCOc1cc(F)c(Cn2nc(-c3nc4c(c(Nc5ccncc5C)n3)CSC4)c3ccccc32)c(F)c1 [Example 2-19-2, 2-[1-(4-ethoxy-2,6-difluorobenzyl)-1H-indazol-3-yl]-N-(3-methylpyridin-4-yl)-5,7-dihydrothieno[3,4-d]pyrimidin-4-amine] |  | 25 nM
26 | CCOc1cc(F)c(Cn2nc(-c3nc4c(c(Nc5ccnc(C)c5)n3)CS(=O)(=O)C4)c3ccccc32)c(F)c1 [Example 2-19-5, 2-[1-(4-ethoxy-2,6-difluorobenzyl)-1H-indazol-3-yl]-N-(2-methylpyridin-4-yl)-5,7-dihydrothieno[3,4-d]pyrimidin-4-amine 6,6-dioxide] |  | 140 nM
27 | CCOc1cc(F)c(Cn2nc(-c3nc(CN4CCOCC4)cc(Nc4ccnc(OC)c4)n3)c3ccccc32)c(F)c1 [Example 2-19-10, 2-[1-(4-ethoxy-2,6-difluorobenzyl)-1H-indazol-3-yl]-N-(2-methoxypyridin-4-yl)-6-(morpholin-4-ylmethyl)pyrimidin-4-amine] |  | 94 nM
28 | CCOc1cc(F)c(Cn2nc(-c3nc4c(c(Nc5ccnc(C(F)F)c5)n3)CS(=O)(=O)C4)c3ccccc32)c(F)c1 [Example 2-19-14, N-[2-(difluoromethyl)pyridin-4-yl]-2-[1-(4-ethoxy-2,6-difluorobenzyl)-1H-indazol-3-yl]-5,7-dihydrothieno[3,4-d]pyrimidin-4-amine 6,6-dioxide] |  | 460 nM
